The source of these data is patent US20240246980A1, “MODULATORS OF MAS-RELATED G-PROTEIN RECEPTOR D AND RELATED PRODUCTS AND METHODS” (Escient Pharmaceuticals, Inc., priority 2022, published 2024).

The target in the assay is human MRGPRD (Homo sapiens, UniProt Q8TDS7). The assay can be described thus: MRGPRD antagonist activity, IP-One HTRF assay in CHO cells stably expressing human MRGPRD (versus 100 μM β-Alanine agonist). The class given is cell-based. The method, then: Chinese Hamster Ovary (CHO) cells stably expressing human MRGPRD (Eurofins, San Diego CA) were plated in a 384-well plate at 20,000 cells per well in 12 μL of Optimem (Fisher Scientific 11-058-021). Plates were kept in the incubator at 37° C. overnight. Antagonists were solubilized at a concentration of 10 mM in DMSO, and the agonists were solubilized to stock concentrations of either 50 mM in H2O (β-Alanine) or 10 mM in DMSO (all others) and then diluted in assay buffer (final concentrations of 5.7 mM Tris-HCl, 43 mM NaCl, 50 mM LiCl, pH=8). The concentration of DMSO was normalized across the plate. Antagonists were added to the plate using a Tecan D300 Digital Dispenser at nanoliter/picoliter volumes and 2 μL of agonists in assay buffer were added to each well for a final assay volume of 14 μL. Plates were covered and incubated for 1 h at 37° C. and then for 1 h at room temperature. IP-1 standards and HTRF detection reagents were added according to an IP-One-Gq Kit purchased from Cisbio (part number 62IPAPEJ) and incubated in the dark for 1 h at room temperature. Assay plates were read on either a Molecular Devices SpectraMax iD5 plate reader or a BMG ClarioStar plate reader. The HTRF ratio was calculated form the raw data and graphed using GraphPad Prism to calculate IC50 values. Data are expressed as average IC50 values and average percent antagonism calculated as a percent of the maximum efficacy response. For these studies, the variability of the data was assessed by determining the standard error of mean (SEM).
Chain of human MRGPRD (Q8TDS7 whole entry): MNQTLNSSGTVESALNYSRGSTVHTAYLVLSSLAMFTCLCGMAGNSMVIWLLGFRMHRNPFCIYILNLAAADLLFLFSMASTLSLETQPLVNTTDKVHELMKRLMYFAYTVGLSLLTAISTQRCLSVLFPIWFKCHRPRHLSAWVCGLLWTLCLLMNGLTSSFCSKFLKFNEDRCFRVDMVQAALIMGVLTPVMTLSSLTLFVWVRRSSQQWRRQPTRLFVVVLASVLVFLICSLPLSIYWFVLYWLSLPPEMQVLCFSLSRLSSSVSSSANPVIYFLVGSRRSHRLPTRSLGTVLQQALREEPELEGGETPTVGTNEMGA
The activity ranges are denoted as follows: “+++++” denotes antagonist activity <100 nM; “++++” denotes antagonist activity between 100 and 500 nM; “+++” denotes activity between 500 and 1000 nM; “++” denotes activity between 1000 and 3000 nM; and “+” denotes activity >3000 nM.
In general terms: In TR-FRET formats the signal depends on donor and acceptor labels being close together.

Broadly, the IC50 is the point on the concentration scale where inhibition reaches its midpoint. Low readings indicate greater potency, high ones weaker potency. Molecule `CN(C)c1ccc(NC(=O)N2CCC[C@H](c3nc(-c4ccccc4)c4ccccn34)C2)cc1` [Compound 10-15] gave an IC50 of 1000 to 3000 nM.

As to `COc1cccc(-c2nc(C3CCCN(C(=O)Nc4ccc(C)cc4C)C3)n3ccccc23)c1` (stereo not drawn) [Compound 5-5, N-(2,4-dimethylphenyl)-3-(1-(3-methoxyphenyl)imidazo[1,5-a]pyridin-3-yl)piperidine-1-carboxamide], the half-maximal inhibitory concentration (IC50) fell in the range of 100 to 500 nM. Take `CN(C)c1ccc(NC(=O)N2CCC[C@@H](c3nc(-c4cnoc4)c4ccccn34)C2)cc1` [Compound 10-53]: the IC50 is 500 to 1000 nM. Consider `COc1cccc(-c2nc([C@@H]3CCCN(C(=O)Nc4ccc(-c5ccccc5)cc4)C3)n3ccccc23)c1` [Compound 5-22], for which the half-maximal inhibitory concentration (IC50) fell in the range of 1000 to 3000 nM.

For `COc1cccc(-c2nc([C@@H]3CCCN(C(=O)Nc4ccon4)C3)n3ccccc23)c1` [Compound 1-30], the IC50 was 100 to 500 nM. The result for `CN(C)c1ccc(NC(=O)N2CCC[C@@H](c3nc(-c4cn(S(=O)(=O)c5ccccc5)c5ccccc45)c4ccccn34)C2)cc1` [Compound 10-54] reads 500 to 1000 nM; that for `CCc1cccc(-c2nc([C@@H]3CCCN(C(=O)Nc4ccc(N(C)C)cc4)C3)n3ccccc23)c1` [Compound 10-9], 500 to 1000 nM; that for `O=C(Nc1ccccc1F)N1CCCC(c2nc(-c3cccnc3)c3ccccn23)C1` (stereo not drawn) [Compound 11-6], over 3000 nM.

On to `CCc1ccc(-c2nc([C@@H]3CCCN(C(=O)Nc4ccc(N(C)C)cc4)C3)n3ccccc23)cc1` [Compound 10-29], for which the concentration for half-maximal inhibition (IC50) was in the range of 500 to 1000 nM.

As to `COc1cccc(-c2nc(C3CCCN(C(=O)c4ccccc4OC)C3)n3c(OC)cccc23)c1` (stereo not drawn) [Compound 14-1, (3-(5-methoxy-1-(3-methoxyphenyl)imidazo[1,5-a]pyridin-3-yl)piperidin-1-yl)(2-methoxyphenyl)methanone], the IC50 was 500 to 1000 nM. With `CNC(=O)N1CCCC(c2nc(-c3cccc(OC)c3)c3ccccn23)C1` (stereo not drawn) [Compound 3-13], the 50% inhibitory concentration (IC50) was over 3000 nM.

For `Cc1ccccc1-c1nc(C2CCCN(C(=O)Nc3ccccc3F)C2)n2ccccc12` (stereo not drawn) [Compound 11-1], the IC50 lay in the range of 1000 to 3000 nM. As for `CCn1cc(CNC(=O)N2CCC[C@@H](c3nc(-c4cccc(OC)c4)c4ccccn34)C2)cn1` [Compound 5-68], the figure is under 100 nM; as for `COc1cccc(-c2nc(C3CCCN(C(=O)c4ccc(F)cc4F)C3)n3ccccc23)c1` (stereo not drawn) [Compound 12-11], 500 to 1000 nM; as for `COc1cccc(-c2nc([C@@H]3CCCN(C(=O)NCCN(C)C)C3)n3ccccc23)c1` [Compound 1-29], 500 to 1000 nM.

With `O=C(Nc1ccccc1F)N1CCCC(c2nc(-c3ccncc3)c3ccccn23)C1` (stereo not drawn) [Compound 11-10], the 50% inhibitory concentration (IC50) fell in the range of 1000 to 3000 nM. `COc1cccc(C(=O)N2CCCC(c3nc(-c4cccc(OC)c4)c4cccc(OC)n34)C2)c1` (stereo not drawn) [Compound 14-3] came in with a half-inhibitory concentration (IC50) of over 3000 nM. The result for `COc1cccc(-c2nc(C3CCCN(S(=O)(=O)c4ccc(F)cc4)C3)n3ccccc23)c1` (stereo not drawn) [Compound 16-3] reads over 3000 nM. `COc1cccc(-c2nc([C@@H]3CCCN(C(=O)Nc4ccccc4OC(F)(F)F)C3)n3ccccc23)c1` [Compound 5-13] yielded a 50% inhibitory concentration (IC50) of 500 to 1000 nM.

Take `COc1cccc(-c2nc([C@H]3CCCN(C(=O)Nc4ccc(N(C)C)cc4)C3)n3ccccc23)c1` [Compound 1-5]: the IC50 lay within 1000 to 3000 nM. In turn, `CCOc1ccc(NC(=O)N2CCC[C@@H](c3nc(-c4cccc(OC)c4)c4ccccn34)C2)cc1` [Compound 1-25] yielded a half-inhibitory concentration (IC50) of under 100 nM. In the case of `Cc1csc(-c2nc([C@@H]3CCCN(C(=O)Nc4ccc(N(C)C)cc4)C3)n3ccccc23)c1` [Compound 10-58], the IC50 lay within 500 to 1000 nM. With `COc1cccc(-c2nc(C3CCCN(C(=O)c4ccc(OC)cc4C)C3)n3ccccc23)c1` (stereo not drawn) [Compound 12-9], the IC50 is 500 to 1000 nM.

The molecule `CCOc1ccccc1NC(=O)N1CCC[C@@H](c2nc(-c3cccc(OC)c3)c3ccccn23)C1` [Compound 5-14] came in with an IC50 of 100 to 500 nM. As for `CN(C)c1ccc(NC(=O)N2CCC[C@@H](c3nc(-c4cccc(OC(F)(F)F)c4)c4ccccn34)C2)cc1` [Compound 10-24], the figure is 500 to 1000 nM; as for `COc1cccc(-c2nn([C@H]3CCCN(C(=O)Nc4ccc(N(C)C)cc4)C3)c3ncccc23)c1` [Compound 20-4], 1000 to 3000 nM.

Consider `COc1cccc(-c2nc(C3CCCN(C(=O)Nc4cccc(Cl)c4)C3)n3ccccc23)c1` (stereo not drawn) [Compound 3-17], for which the IC50 is 500 to 1000 nM. The molecule `CN(C)c1ccc(NC(=O)N2CCC[C@@H](c3nc(-c4cc5ccccc5s4)c4ccccn34)C2)cc1` [Compound 10-61] yielded an IC50 of over 3000 nM.

Molecule `COc1cccc(-c2nc(C3CCCN(C(=O)Nc4ccccc4F)C3)n3cc(C)ccc23)c1` (stereo not drawn) [Compound 18-1, N-(2-fluorophenyl)-3-(1-(3-methoxyphenyl)-6-methylimidazo[1,5-a]pyridin-3-yl)piperidine-1-carboxamide] had an IC50 of 100 to 500 nM. In turn, `COc1ccc(C(=O)N2CCCC(c3nc(-c4cccc(OC)c4)c4cccc(OC)n34)C2)cc1` (stereo not drawn) [Compound 14-4] registered an IC50 of 100 to 500 nM. The result for `COc1cccc(-c2nn(C3CCCN(C(=O)Nc4ccc(N(C)C)cc4)C3)c3ccccc23)c1` (stereo not drawn) [Compound 5-6] reads under 100 nM; that for `COc1cccc(-c2nc([C@@H]3CCCN(C(=O)Nc4cccc5ccccc45)C3)n3ccccc23)c1` [Compound 5-39], 100 to 500 nM. As for `COc1cccc(-c2nc([C@@H]3CCCN(C(=O)Nc4ccc5cccnc5c4)C3)n3ccccc23)c1` [Compound 5-40], the IC50 was under 100 nM. The molecule `COc1cccc(-c2nc([C@@H]3CCCN(C(=O)Nc4cccc5c4CCC5)C3)n3ccccc23)c1` [Compound 5-26] displayed an IC50 of 100 to 500 nM. Take `COc1cccc(-c2nc(C3CCCN(C(=O)Nc4ccc(Cl)cc4)C3)n3ccccc23)c1` (stereo not drawn) [Compound 3-20]: the concentration for half-maximal inhibition (IC50) was 500 to 1000 nM. As for `COc1cccc(-c2nc(C3CN(C(=O)Nc4ccc(N(C)C)cc4)C3)n3ccccc23)c1` [Compound 23-2], the figure is over 3000 nM. As for `COc1cccc(-c2nc(C3CCCN(C(=O)Nc4ccc(N(C)C)cc4)C3)c3ccccn23)c1` (stereo not drawn) [Compound 26-1, N-(4-(dimethylamino)phenyl)-3-(3-(3-methoxyphenyl)imidazo[1,5-a]pyridin-1-yl)piperidine-1-carboxamide], the figure is under 100 nM; as for `COc1cccc(-c2nc([C@@H]3CCCN(C(=O)Nc4ccc(N(C)C)cc4)C3)n3ccccc23)c1` [Compound 1-2, (R)—N-(4-(dimethylamino)phenyl)-3-(1-(3-methoxyphenyl)imidazo[1,5-a]pyridin-3-yl)piperidine-1-carboxamide], under 100 nM; as for `CNC(=O)N1CCC[C@H]1c1nc(-c2cccc(OC)c2)c2ccccn12` [Compound 21-3], over 3000 nM. `COc1cccc(-c2nc([C@@H]3CCCN3C(=O)Nc3ccc(N(C)C)cc3)n3ccccc23)c1` [Compound 21-5] had a concentration for half-maximal inhibition (IC50) of over 3000 nM. As for `COc1cccc(-c2nc(C3CCCN(S(=O)(=O)c4ccccc4F)C3)n3ccccc23)c1` (stereo not drawn) [Compound 16-1], the figure is 500 to 1000 nM; as for `COc1cccc(-c2nc([C@@H]3CCCN(C(=O)NCCS(C)(=O)=O)C3)n3ccccc23)c1` [Compound 5-52], 100 to 500 nM; as for `CN(C)c1ccc(NC(=O)N2CCC[C@@H](c3nc(-c4cccc(C(F)(F)F)c4)c4ccccn34)C2)cc1` [Compound 10-11], 500 to 1000 nM. `COc1cccc(-c2nc([C@@H]3CCCN(C(=O)Nc4ccccc4CO)C3)n3ccccc23)c1` [Compound 5-28] returned a half-maximal inhibitory concentration (IC50) of under 100 nM. The result for `CCOCn1cc(NC(=O)N2CCC[C@@H](c3nc(-c4cccc(OC)c4)c4ccccn34)C2)cn1` [Compound 5-49] reads under 100 nM. As for `COc1cccc(-c2nc([C@@H]3CCCN(C(=O)Nc4ccc5c(c4)CN(C)C5)C3)n3ccccc23)c1` [Compound 5-53], the figure is under 100 nM; as for `COc1cccc(-c2nc([C@@H]3CCCN(C(=O)Nc4cc(C)nn4C)C3)n3ccccc23)c1` [Compound 5-59], under 100 nM; as for `COc1cccc(-c2nc([C@@H]3CCCN(C(=O)NCc4nccs4)C3)n3ccccc23)c1` [Compound 5-45], under 100 nM. `CNC(=O)N1CCC[C@@H]1c1nc(-c2cccc(OC)c2)c2ccccn12` [Compound 21-4] showed a half-maximal inhibitory concentration (IC50) of over 3000 nM.

Molecule `COc1ccc(CNC(=O)N2CCC[C@@H](c3nc(-c4cccc(OC)c4)c4ccccn34)C2)cc1` [Compound 5-58] returned a half-maximal inhibitory concentration (IC50) of under 100 nM. The result for `COc1cccc(-c2nc([C@@H]3CCCN(C(=O)Nc4ccccc4CN(C)C)C3)n3ccccc23)c1` [Compound 1-21] reads 500 to 1000 nM. As for `COc1cccc(-c2nc(C3CCCN(C(=O)c4cc(OC)c(OC)c(OC)c4)C3)n3c(OC)cccc23)c1` (stereo not drawn) [Compound 14-2], the figure is over 3000 nM; as for `COc1cccc(-c2nc([C@@H]3CCCN(C(=O)Nc4ccccc4)C3)n3ccccc23)c1` [Compound 3-27], under 100 nM; as for `CN(C)c1ccc(NC(=O)N2CCC[C@@H](c3nc(-c4cnn(-c5ccccc5)c4)c4ccccn34)C2)cc1` [Compound 10-63], 1000 to 3000 nM.
